Entries after “also recorded” stand apart in the source; their conditions may differ. One block for each molecule: values may come before it.
Assays:
human NNMT (mt-hNNMT) = biological target: T1, human NNMT (mt-hNNMT) (Homo sapiens, UniProt P40261, E101A/E103A/K100A); experiment: NNMT activity assay (HPLC-UV detection of MNA), NNMT IC50 curves; conditions: for IC50: NNMT Inhibition IC50, mean ± SD of duplicate or triplicate measurements, NI = no observable inhibition
T1 sequence (P40261 1-261 K100A/E101A/E103A limits assumed): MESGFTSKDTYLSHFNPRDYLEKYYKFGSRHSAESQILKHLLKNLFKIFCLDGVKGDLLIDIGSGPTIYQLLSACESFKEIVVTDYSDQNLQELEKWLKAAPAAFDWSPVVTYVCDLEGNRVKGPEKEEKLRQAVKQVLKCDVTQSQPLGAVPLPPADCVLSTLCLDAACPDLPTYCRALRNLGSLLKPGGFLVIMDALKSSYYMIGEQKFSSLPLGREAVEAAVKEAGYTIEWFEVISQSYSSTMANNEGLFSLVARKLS

Caco-2 cells = experiment: Bi-directional permeability assay with Caco-2 cells; conditions: Caco-2
[1] = as above; conditions: human
[2] = test system: 3T3-L1 pre-adipocytes cells; experiment: MTT cell viability assay; type: cell-based; conditions: 3T3-L1 pre-adipocytes, 24 h
Description: Cells were treated for 24 h with 0.1-600 μM NNMT inhibitors in cell culture media. A 24 h time point was chosen based on a previous report of using this time period for transfecting or treating 3T3-L1 cells with NNMT anti-sense oligonucleotides or a small molecule NNMT product inhibitor (1-MNA), respectively, for phenotypic measures. MTT (3-(4,5-dimethylthiazol-2-yl)-2,5-diphenyltetrazolium bromide) (ATCC; Manassas, Va., USA) was added to each well and assayed according to the manufacturer's instructions. Absorbance corresponding to the amount of formazan dye produced by treated cells was normalized to that produced by control (untreated) cells to calculate % viable cells in the treated samples.

[3] = Parallel artificial membrane permeability assay (PAMPA); type: in vitro ADME; conditions: for Papp at 4 h, 400 μM: read-out: Flux; for Permeability Classification (passive transport): BCS classification
Description: Samples were tested in triplicates in three separate experiments.

[4] = biological target: recombinant human PRMT3 enzyme (Homo sapiens, UniProt O60678); experiment: PRMT3 activity assay (radiometric); type: biochemical; conditions: NC: not calculable (no significant inhibition); read-out: IC50, Protein arginine methyltransferase 3
Chain of recombinant human PRMT3 enzyme (O60678 whole entry): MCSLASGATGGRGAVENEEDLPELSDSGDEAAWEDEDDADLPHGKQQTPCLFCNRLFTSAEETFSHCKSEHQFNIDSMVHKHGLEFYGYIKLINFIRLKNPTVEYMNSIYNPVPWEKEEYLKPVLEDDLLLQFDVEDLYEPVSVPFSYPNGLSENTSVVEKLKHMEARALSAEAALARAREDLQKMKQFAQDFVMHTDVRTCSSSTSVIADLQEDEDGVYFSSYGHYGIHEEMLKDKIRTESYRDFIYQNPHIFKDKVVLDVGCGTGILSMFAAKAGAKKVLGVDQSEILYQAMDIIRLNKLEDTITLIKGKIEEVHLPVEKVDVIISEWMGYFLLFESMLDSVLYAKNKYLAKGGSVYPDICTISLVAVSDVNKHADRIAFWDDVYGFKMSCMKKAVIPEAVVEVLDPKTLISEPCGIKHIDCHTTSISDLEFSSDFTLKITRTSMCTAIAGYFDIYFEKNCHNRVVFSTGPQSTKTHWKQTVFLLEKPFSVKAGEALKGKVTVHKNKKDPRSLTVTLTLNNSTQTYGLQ
Excerpt: Test compounds were screened in biochemical assays for activity against three structurally similar methyltransferases, including catechol-O-methyltransferase (COMT), DNA (cytosine-5)-methyltransferase 1 (DNMT1), and protein arginine methyltransferase 3 (PRMT3). Additional biochemical assays were used to test the ability of compounds to inhibit nicotinamide phosphoribosyl transferase (NAMPT) and NAD+-dependent protein deacetylase sirtuin 1 (SIRT1), two enzymes in the NAD+ biosynthesis/salvage pathway. All assays were performed by Reaction Biology Corporation (RBC; Malvern, Pa., USA) and complete assay details are noted below. For each test compound, IC50 values were calculated from dose-response curves established with 10 concentrations of a half-log dilution series. For each assay, established enzyme specific inhibitors were included as positive controls for enzyme function and assay reproducibility. IC50 values were determined by non-linear least-squares fitting of a 4-parameter dose-response curve to collected data points (Graphpad Prism 7.0; La Jolla, Calif., USA).
PRMT3 activity assay. […] The analogues, 1,8-diMQ and 5-amino-1MQ were tested at concentrations from 200 μM-10 nM and 600 μM-10 nM, respectively. Reactions were performed with 5 μM histone H3 (histone L-arginine) substrate, 1 μM radiolabeled S-adenosyl-L-[methyl-3H]methionine (SAM) co-substrate, and recombinant human PRMT3 enzyme. Activity was monitored via quantification of radiolabeled reaction product histone [methyl-3H]-L-arginine.

[5] = test system: NNMT activity in 3T3-L1 pre-adipocytes and differentiated adipocytes; experiment: Quantitative measurement of NNMT reaction product 1-MNA in cultured cells (LC/MS/MS); type: cell-based; conditions: 10 μM, 24 h
Description: Differentiation of 3T3-L1 pre-adipocytes. […] Briefly, standard culture media was supplemented with scheduled addition of adipogenic agents [3-isobutyl-1methyl xanthine (IBMX), Sigma Aldrich; MO, USA), dexamethasone (Sigma Aldrich; MO, USA), insulin (Gibco Life Technologies Inc.; Grand Island, N.Y., USA)] over 10 days to promote differentiation of 3T3-L1 fibroblasts into adipocytes; a combination of 1 mM IBMX, 1 μM dexamethasone, and 10 μg/ml of insulin in media were added to fully confluent 3T3-L1 fibroblasts for three days (days 0-3) to initiate differentiation. At day 3, the media was replaced with culture media supplemented with insulin (10 μg/ml). After day 6, cells were maintained in culture media until described experiments were begun (days 8-10).
Cellular 1-MNA concentrations were determined using an ultra-sensitive high-resolution AB Sciex 6500 Q-trap mass spectrometer coupled to an Agilent 1260 ultra-high pressure liquid chromatography (LC/MS/MS) system. Using multiple reaction monitoring (MRM) positive ion mode, the 1-MNA NNMT reaction product was quantified from peak area ratios using AB Sciex Analyst and MultiQuant 2.1 software and the parent precursor and Q3 masses set to m/z 137.1 and 94.1, respectively. Fragment ions at m/z of 92.1 and 77.9 were additionally used for the detection and confirmation of 1-MNA, respectively. […]. To determine the effect of NNMT inhibitor on NNMT activity in the pre-adipocytes and differentiated adipocytes (8×10^4 cells/well seeded prior to beginning differentiation), cells were treated with 30 μM inhibitor for 24 h. Similarly, to compare the relative effects of multiple NNMT inhibitors on NNMT activity in cultured adipocytes, differentiated adipocytes in 6-well plates were treated with 10 μM test compound for 24 h. Following treatment, media was replaced with 80% (v/v) methanol (cooled to −80° C.) containing 500 nmol 6-chloronicotinamide (6-CN) as an internal standard (IS) to extract cellular metabolites. Adherent cells were scrapped, then centrifuged at 4° C. and 13000 g for 15 min, and the resulting supernatants processed using established protocols. […]. Data were subsequently normalized to the IS peak area and transformed as % control values for cross-sample comparisons. […] Choice of inhibitor concentrations and time period was chosen based on the results from the MTT studies.

[6] = 400 μM in PBS, 4 h, room temperature

Molecule: CC(C(=O)c1ccc(Br)cc1)[n+]1cccc2ccccc21 (stereo not drawn) [1v]
IC50 (human NNMT (mt-hNNMT)): > 1000 µM

Molecule: C[n+]1ccc(Cl)c2cccc(C(F)(F)F)c21.O=S(=O)([O-])C(F)(F)F [2l, 4-chloro-1-methyl-8-(trifluoromethyl)quinolin-1-ium Trifluoromethanesulfonate]
inhibitory activity against NNMT (in words) (human NNMT (mt-hNNMT)): inhibitory activity
IC50 (human NNMT (mt-hNNMT)): > 1000 µM

Molecule: C[n+]1cccc2ccc(N)cc21 [1o]
IC50 (human NNMT (mt-hNNMT)): 2.6 ± 0.5 µM
Classification (active transport / efflux) (Caco-2 cells; listed as 7-amino-1MQ): no detectable efflux; also recorded: High permeability
efflux ratio at 2 h, 10 μM ([1]; Caco-2): 1.52
Papp A→B at 2 h, 10 μM ([1]; Caco-2, pH 7.4): 26 ×10⁻⁶ cm/s
Papp B→A at 2 h, 10 μM ([1]; Caco-2, pH 7.4): 39.6 ×10⁻⁶ cm/s
cell viability ([2]; 10 μM): did not impact cell viability
cytotoxicity ([2]; 600 μM (highest concentration tested)): ~40%
cytotoxicity relative to untreated cells ([2]; 100-300 μM): modest cytotoxicity
Papp at 4 h, 400 μM [3, 6]: 2.05 ×10⁻⁶ cm/s
Permeability Classification (passive transport) ([3]; listed as 7-amino-1MQ): high passive and active transport; also recorded: High permeability

Molecule: C[n+]1c(N)ccc2ccccc21.[I-] [1c, 2-amino-1-methylquinolin-1-ium Iodide]
inhibitory activity against NNMT (in words) (human NNMT (mt-hNNMT)): exhibited inhibitory activity
IC50 (human NNMT (mt-hNNMT)): 6.3 ± 1.1 µM

Molecule: C[n+]1cc(N)cc2cc(F)ccc21 [2j, 3-amino-6-fluoro-1-methylquinolin-1-ium]
inhibitory activity against NNMT (in words) (human NNMT (mt-hNNMT)): inhibitory activity
IC50 (human NNMT (mt-hNNMT)): 1.2 ± 0.2 µM
1-MNA levels in differentiated adipocytes relative to control [5]: significantly decreased
Papp at 4 h, 400 μM [3, 6]: 1.08 ×10⁻⁶ cm/s
Permeability Classification (passive transport) [3]: Moderate permeability

Molecule: C[n+]1cc(Nc2ccccc2)cc2ccccc21 [1g]
IC50 (human NNMT (mt-hNNMT)): > 1000 µM

Molecule: 1-methylnicotinamide [reference compound]
Flux [3, 6]: 0 cm/s
Permeability Classification (passive transport) [3]: No permeability
Permeability Classification (passive transport) ([3]; listed as 1-MNA): no passive permeability

Molecule: C[n+]1cccc2cc(N)ccc21.[I-] [1m, 6-amino-1-methylquinolin-1-ium Iodide]
inhibitory activity against NNMT (in words) (human NNMT (mt-hNNMT)): exhibited inhibitory activity
IC50 (human NNMT (mt-hNNMT)): 34.4 ± 9.6 µM

Molecule: CNc1cc2ccccc2[n+](C)c1.[I-] [1f, 1-methyl-3-(methylamino)quinolin-1-ium Iodide]
inhibitory activity against NNMT (in words) (human NNMT (mt-hNNMT)): exhibited inhibitory activity
IC50 (human NNMT (mt-hNNMT)): 4 ± 1.5 µM

Now from value to molecule:

IC50 (human NNMT (mt-hNNMT)): 33.5 ± 9.9 µM
Molecule: Cc1cc[n+](CCO)c2ccccc12 [2c]

IC50 (human NNMT (mt-hNNMT)): > 1000 µM
Molecule: O=C1C2CC=C(Cl)CC2C(=O)N1CCC[n+]1cccc2ccccc21 (stereo not drawn) [1w]

IC50 (human NNMT (mt-hNNMT)): 21 ± 2.1 µM
Molecule: Cc1ccc2ccccc2[n+]1C [1b]

IC50 [4]: 6.6 ± 1.2 µM
Molecule: Nc1ncnc2c1ncn2[C@@H]1O[C@H](CSCC[C@H](N)C(=O)O)[C@@H](O)[C@H]1O [SAH, S-adenosylhomocysteine, reference compound]

IC50 (human NNMT (mt-hNNMT)): 5.7 ± 1.8 µM
Molecule: C[n+]1cccc2cc(F)ccc21 [1k]

IC50 (human NNMT (mt-hNNMT)): 120 ± 50.1 µM
Molecule: COc1ccc2c(ccc[n+]2C)c1 [1n]

IC50 (human NNMT (mt-hNNMT)): 709 ± 179 µM
Molecule: C[n+]1cccc2ccc(O)cc21 [1p]

IC50 (human NNMT (mt-hNNMT)): 11.4 ± 2.1 µM
Molecule: C[n+]1ccc(N)c2ccccc21 [1i]

IC50 (human NNMT (mt-hNNMT)): 2.9 µM
Molecule: C[n+]1cc(N)cc2ccccc21 [1d]

Classification (active transport / efflux) (Caco-2 cells): Low permeability
Molecule: CNC(=C[N+](=O)[O-])NCCSCc1ccc(CN(C)C)o1 [Ranitidine, reference compound]

IC50 (human NNMT (mt-hNNMT)): 3.1 ± 1.4 µM
Molecule: CC[n+]1cccc2cccc(C)c21 [2b]

— patent US11401243B2, “Quinoline derived small molecule inhibitors of nicotinamide N-methyltransferase (NNMT) and uses thereof” (priority 2017, dated 2022)
